Activity calls are given as the source filed them. The rule behind the calls is not given here.
What was measured:
MRC5 = assay: Cytotoxicity against human MRC5 cells at <50 ug/ml; format: cell-based
[1] = tested on: Staphylococcus epidermidis; assay: Inhibition of biofilm formation in Staphylococcus epidermidis at 50 ug/ml after overnight incubation by crystal violet staining based method; format: functional
Staphylococcus aureus = assay: Antibacterial activity against Staphylococcus aureus ATCC 25923 after overnight incubation by photometric method; format: functional
Streptococcus agalactiae = assay: Antibacterial activity against Streptococcus agalactiae group B ATCC 12386 after overnight incubation by photometric method; format: functional
Escherichia coli [2] = assay: microbe, parasite or virus in culture; conditions: ATCC 25922
Description: Antibacterial activity against Escherichia coli ATCC 25922 after overnight incubation by photometric method

Pseudomonas aeruginosa [3] = assay: microbe, parasite or virus in culture; conditions: ATCC 27853
Description: Antibacterial activity against Pseudomonas aeruginosa ATCC 27853 after overnight incubation by photometric method

Enterococcus faecalis [4] = assay: Antibacterial activity against Enterococcus faecalis ATCC 29212 after overnight incubation by photometric method; format: functional
Enterococcus faecalis [5] = assay: Antibacterial activity against Enterococcus faecalis ATCC 29212 at 50 ug/ml after overnight incubation by photometric method; format: functional
Pseudomonas aeruginosa [6] = assay: Antibacterial activity against Pseudomonas aeruginosa ATCC 27853 at 50 ug/ml after overnight incubation by photometric method; format: functional
Escherichia coli [7] = assay: Antibacterial activity against Escherichia coli ATCC 25922 at 50 ug/ml after overnight incubation by photometric method; format: functional

Compound	Activity (MRC5)	MIC (Staphylococcus aureus) [µg/mL]	MIC (Streptococcus agalactiae) [µg/mL]	further results
CN(C)CCCc1cn(Cc2ccc3ccccc3c2)nn1.Cl	Non-Toxic	–	–	–
Cl.N=C(N)NCCc1cn(Cc2ccc3ccccc3c2)nn1	Non-Toxic	–	–	–
CC(C)(C)c1cc(Cn2cc(CCCN)nn2)cc(C(C)(C)C)c1.Cl	Non-Toxic	–	–	biofilm formation inhibition (active/not active) [1]: inactive
CN(C)CCc1cn(Cc2cc(C(C)(C)C)cc(C(C)(C)C)c2)nn1.Cl	Non-Toxic	–	–	biofilm formation inhibition (active/not active) [1]: Active
Cl.N=C(N)NCCc1cn(Cc2ccccc2)nn1	Non-Toxic	–	–	–
Cl.N=C(N)NCCCc1cn(Cc2cc(C(F)(F)F)cc(C(F)(F)F)c2)nn1	Non-Toxic	–	–	–
CN(C)CCc1cn(Cc2ccc3ccccc3c2)nn1.Cl	Non-Toxic	–	–	–
Cl.N=C(N)NCCCc1cn(Cc2ccc3ccccc3c2)nn1	Non-Toxic	–	–	biofilm formation inhibition (active/not active) [1]: Active
CN(C)CCc1cn(Cc2cc(C(F)(F)F)cc(C(F)(F)F)c2)nn1.Cl	Non-Toxic	–	–	–
CN(C)CCCc1cn(Cc2ccccc2)nn1.Cl	Non-Toxic	–	–	–
CN(C)CCCc1cn(Cc2cc(C(F)(F)F)cc(C(F)(F)F)c2)nn1.Cl	Non-Toxic	–	–	–
Cl.NCCc1cn(Cc2cc(C(F)(F)F)cc(C(F)(F)F)c2)nn1	Non-Toxic	–	–	–
CC(C)(C)c1cc(-n2cc(CCCNC(=N)N)nn2)cc(C(C)(C)C)c1.Cl	–	4	4	MIC (Escherichia coli [2]): 16 µg/mL; MIC (Pseudomonas aeruginosa [3]): 16 µg/mL; MIC (Enterococcus faecalis [4]): 16 µg/mL
CCCCCCCOc1ccc(-n2cc(CCCNC(=N)N)nn2)cc1.Cl	–	4	4	MIC (Escherichia coli [2]): 8 µg/mL; MIC (Pseudomonas aeruginosa [3]): 8 µg/mL; MIC (Enterococcus faecalis [4]): 8 µg/mL
CC(C)(C)c1cc(Cn2cc(CCNC(=N)N)nn2)cc(C(C)(C)C)c1.Cl	Non-Toxic	20	10	MIC (Escherichia coli [2]): 50 µg/mL; biofilm formation inhibition (active/not active) [1]: Active; MIC (Pseudomonas aeruginosa [3]): 40 µg/mL; MIC (Enterococcus faecalis [4]): 40 µg/mL
Cl.NCCCc1cn(Cc2ccc3ccccc3c2)nn1	Non-Toxic	–	–	–
Cl.NCCCc1cn(Cc2cc(C(F)(F)F)cc(C(F)(F)F)c2)nn1	Non-Toxic	–	–	–
CC(C)(C)c1cc(Cn2cc(CCN)nn2)cc(C(C)(C)C)c1.Cl	Non-Toxic	40	40	Activity (Enterococcus faecalis [5]): inactive; MIC (Escherichia coli [2]): 40 µg/mL; biofilm formation inhibition (active/not active) [1]: Active; MIC (Pseudomonas aeruginosa [3]): 50 µg/mL
CC(C)(C)c1cc(Cn2cc(CCCNC(=N)N)nn2)cc(C(C)(C)C)c1.Cl	Non-Toxic	10	10	MIC (Escherichia coli [2]): 40 µg/mL; biofilm formation inhibition (active/not active) [1]: Active; MIC (Pseudomonas aeruginosa [3]): 40 µg/mL; MIC (Enterococcus faecalis [4]): 40 µg/mL
CCCCCCCOc1ccc(-n2cc(CCCN)nn2)cc1.Cl	–	16	8	MIC (Escherichia coli [2]): 8 µg/mL; MIC (Pseudomonas aeruginosa [3]): 16 µg/mL; MIC (Enterococcus faecalis [4]): 16 µg/mL
Cl.N=C(N)NCCc1cn(Cc2cc(C(F)(F)F)cc(C(F)(F)F)c2)nn1	Non-Toxic	–	–	–
Cl.NCCCc1cn(Cc2ccccc2)nn1	Non-Toxic	–	–	–
CN(C)CCc1cn(Cc2ccccc2)nn1.Cl	Non-Toxic	–	–	–
Cl.NCCc1cn(Cc2ccc3ccccc3c2)nn1	Non-Toxic	–	–	–
Cl.NCCc1cn(Cc2ccccc2)nn1	Non-Toxic	–	–	–
GENTAMICIN	–	0.13	4	MIC (Enterococcus faecalis [4]): 10 µg/mL
CC(C)(C)c1cc(-n2cc(CCCN)nn2)cc(C(C)(C)C)c1.Cl	–	16	16	MIC (Escherichia coli [2]): 16 µg/mL; MIC (Pseudomonas aeruginosa [3]): 32 µg/mL; MIC (Enterococcus faecalis [4]): 32 µg/mL
CN(C)CCCc1cn(Cc2cc(C(C)(C)C)cc(C(C)(C)C)c2)nn1.Cl	Non-Toxic	40	50	Activity (Enterococcus faecalis [5]): inactive; biofilm formation inhibition (active/not active) [1]: Active; Activity (Pseudomonas aeruginosa [6]): inactive; Activity (Escherichia coli [7]): inactive
Cl.N=C(N)NCCCc1cn(Cc2ccccc2)nn1	Non-Toxic	–	–	–
